Experimental data reported in US20160287617A1 (priority 2013, published 2016).
Marks after values point to notes of the source that are not given here.

Assays:
Parameters in all cases: species or system broiler chickens
Conditions in all cases: in vivo
Newcastle = test system: Newcastle
T-2 toxin in chickens [1] = test system: T-2 toxin in chickens
T-2 toxin in chickens [2] = test system: T-2 toxin in chickens; remark: listed apart in the source
T-2 toxin in chickens [3] = test system: T-2 toxin in chickens; remark: listed apart in the source
T-2 toxin in chickens [4] = test system: T-2 toxin in chickens; remark: listed apart in the source
T-2 toxin in chickens [5] = test system: T-2 toxin in chickens; remark: listed apart in the source

**Q.** Which results are given for T-2 toxin?
**A.** Inhibition of Newcastle hemagglutination (18 days after vaccination), medians ± standard error (Newcastle): 8.717 ± 0.29 ^b Log2; Granulocytes (segmented neutrophils and band neutrophils), medians ± standard error (T-2 toxin in chickens [1]): 0.9 ± 0.17 ^a 10^3/μL; Hematocrit, medians ± standard error (T-2 toxin in chickens [1]): 31.8 ± 1.56 ^a %; Hemoglobin, medians ± standard error (T-2 toxin in chickens [1]): 12.1 ± 0.46 ^a g/dL; Lymphocytes, medians ± standard error (T-2 toxin in chickens [1]): 58.4 ± 3.32 ^b 10^3/μL; Median cell count (monocytes, basophils and eosinophils), medians ± standard error (T-2 toxin in chickens [1]): 5.8 ± 0.76 ^a 10^3/μL; Platelets, medians ± standard error (T-2 toxin in chickens [1]): 31 ± 4.95 ^a 10^3/μL; Red blood cells (erythrocytes), medians ± standard error (T-2 toxin in chickens [1]): 2.46 ± 0.12 ^a 10^6/μL; White blood cells (Leukocytes), medians ± standard error (T-2 toxin in chickens [1]): 65.10 ± 4.07 ^b 10^3/μL; Gizzard: loss of continuity, ulcer activity (moderate multifocal ulcerative ventriculitis) (T-2 toxin in chickens [2]): 7/12; Gizzard: scant erosions in the recovery zone (discrete, multifocal erosions) (T-2 toxin in chickens [2]): 5/12; Kidney: lymphocyte clusters in the interstitial space (T-2 toxin in chickens [2]): 4/12; Larynx: no significant changes (T-2 toxin in chickens [2]): 4/12; Liver: areas of extramedullary hematopoiesis (T-2 toxin in chickens [2]): 1/12; Liver: multifocal lymphocyte clusters around portal cavities and in the parenchymal (lymphocytic colangiohepatitis) (T-2 toxin in chickens [2]): 8/12; Liver: scant fat vacuoles/cells in hepatocyte cytoplasm (esteatosis) (T-2 toxin in chickens [2]): 3/12; Proventriculus: hyperplasia / cluster of associated lymphoid tissue (T-2 toxin in chickens [2]): 1/12; Proventriculus: no significant changes (T-2 toxin in chickens [2]): 11/12; Spleen, thymus: no significant changes (T-2 toxin in chickens [2]): 12/12; Tongue: dense plates above epithelium lining with lymphocyte and macrophage clusters (estomatitis and erosive/necrotic glositis) (T-2 toxin in chickens [2]): 8/12; Tongue: no significant changes (animals/examined) (T-2 toxin in chickens [2]): 4/12; Ash, medians ± standard error (T-2 toxin in chickens [3]): 56.37 ± 0.32 ^a %; Calcium, medians ± standard error (T-2 toxin in chickens [3]): 20.43 ± 0.19 ^a %; Manganesium, medians ± standard error (T-2 toxin in chickens [3]): 6.7 ± 0.21 ^a mg/kg; Phosphorous, medians ± standard error (T-2 toxin in chickens [3]): 9.72 ± 0.07 ^a %; Zinc, medians ± standard error (T-2 toxin in chickens [3]): 247 ± 4.37 ^a mg/kg; Feed consumption, medians ± standard error (T-2 toxin in chickens [4]): 2035 ± 44.3 ^a; Feed conversion, medians ± standard error (T-2 toxin in chickens [4]): 1.45 ± 0.035 ^b; Weight gain, medians ± standard error (T-2 toxin in chickens [4]): 1399 ± 29.46 ^b; Weight in g, Final (28 days), medians ± standard error (T-2 toxin in chickens [4]): 1442 ± 29.49 ^b g; Weight in g, Initial, medians ± standard error (T-2 toxin in chickens [4]): 43 ± 0.43 ^a g; Xantophylls (oral solution), medians ± standard error (T-2 toxin in chickens [4]; po): 8.92 ± 0.70 ^b mg/L; Relative weight of bursa of Fabricius (%), medians ± standard error (T-2 toxin in chickens [5]): 0.248 ± 0.016 ^a %; Relative weight of kidney (%), medians ± standard error (T-2 toxin in chickens [5]): 0.809 ± 0.032 ^a %; Relative weight of liver (%), medians ± standard error (T-2 toxin in chickens [5]): 2.57 ± 0.104 ^a %; Relative weight of spleen (%), medians ± standard error (T-2 toxin in chickens [5]): 0.094 ± 0.009 ^a %; Relative weight of thymus (%), medians ± standard error (T-2 toxin in chickens [5]): 0.282 ± 0.020 ^a %
